The values below are quoted from earlier work in patent publication EP1550371A2, “Pesticidal compositions comprising an oxathiin and triazole fungicides” (Tovarystvo z obmegenoyu vidpovidalnistyu "Prezence", priority 2003, dated 2005).

Data set [1] has as its system mice. Conditions: in mice.
The subject of data set [2] is rats. Conditions: in rats.
Data set [3] has as its system rats. Conditions: in rats. The source holds these as a separate data set.
The subject of data set [4] is powdery mildew and rust. Conditions: in experiments.
For data set [5], the system named is quails. Conditions: in quails.
The conditions of data set [6]: at 25 °C.
For data set [7], the system named is rabbits. Conditions: in rabbits.

`CC(C)(C)C(O)(CCc1ccc(Cl)cc1)Cn1cncn1` (stereo not shown) [Tebuconazol, RS-1-(4-chlorophenyl)-4,4-dimethyl-3-(1H-1,2,4-triazol-1-ilmethyl) pentan-3-ol]: the “oral LD50” value is 1.6 to 3.9 g/kg in data set [1] and 3.9 to 5 g/kg in data set [3]. In addition, in data set [2], the skin-resorbtive toxicity entry is recorded as “above 5 g/kg”.
Take `CC(C)(C)C(O)C(Oc1ccc(Cl)cc1)n1cncn1` (stereo not shown) [Triadimenol]: the “oral LD50” value in data set [1] is 1.3 g/kg; in data set [5] it was 10 g/kg; in data set [3], 0.7 to 1.5 g/kg. In data set [2], the skin-resorbtive toxicity result was “above 5 g/kg”. In data set [4], the “Protective systemic action against powdery mildew and rust” value is 4 to 8 days.
Regarding `CC1=C(C(=O)Nc2ccccc2)SCCO1` [Carboxin, 5,6-dihydro-2-methyl-1,4-oxathiin-3-carboxanyl], in data set [6], the Solubility in acetone is listed as 60%, the Solubility in dimethylsulfoxide is listed as 150%, the “Solubility in ethyl alcohol” value is 21% and the Solubility in gasoline is recorded as 15%. In data set [6], the “Solubility in methyl alcohol” value is on record as 21% and the Solubility in water is 0.017%. In data set [7], the “skin-resorptive LD50” value is given as “above 8 g/kg”. Moreover, the “oral LD50” value in data set [3] is given as 3.8 g/kg.
